Measured values reported in patent US9968583B2, “Method of manufacture of liposome composition” (EISAI R & D MANAGEMENT CO., LTD., priority 2009, dated 2018).
Structures can show the parent of a compound that is named as a salt. Where two headings read alike, the source gives them in different places.

Tests used:
[1] = tested on: FaDu, human pharyngeal squamous cell carcinoma line; assay: Antitumor activity of eribulin mesylate in FaDu cancer-bearing nude mice (Embodiment 13, FIG. 6); type: in vivo; conditions: 4.0 mg/kg free bodies, caudal vein, 3 times in 7-day intervals
Procedure: FaDu (obtained from the American Type Culture Collection), which is a human pharyngeal squamous cell carcinoma line, was cultured and grown in a 10% bovine fetal serum-containing MEM culture. The cells were separated from the flask using 0.05% Trypsin-EDTA solution and collected. After washing with PBS, the cells were suspended in PBS so as to be 5×10^7 cells/mL and then kept on ice. 0.1 mL of cell suspension liquid were subcutaneously injected in the right ventral portion of 6-week old nude mice (Charles River Laboratories Japan, Inc.). Each mouse was observed daily, and notes made appropriately in cases where abnormal conditions were found. Calipers were used to measure the tumor size over time, and the tumor size was calculated based on the calculation formula: major axis×(minor axis squared)÷2. At the point when the tumor size was 100 to 200 mm^3, the mice were separated into groups such that the average values of the tumor sizes and the body weights of mice were uniform among the test groups (five mice per test group), and the drug was administered into the caudal vein (0.2 mL/20 g; 3 times in 7-day intervals).

[2] = tested on: FaDu, human pharyngeal squamous cell carcinoma line; assay: Antitumor activity of eribulin mesylate in FaDu cancer-bearing nude mice (Embodiment 14, FIG. 7); type: in vivo; conditions: 4.0 mg/kg free bodies, caudal vein, 3 times in 7-day intervals
Procedure: FaDu (obtained from the American Type Culture Collection), which is a human pharyngeal squamous cell carcinoma line, was cultured and grown in a 10% bovine fetal serum-containing MEM culture. The cells were separated from the flask using 0.05% Trypsin-EDTA solution and collected. After washing with PBS, the cells were suspended in PBS so as to be 5×10^7 cells/mL and kept on ice. 0.1 mL of cell suspension liquid was subcutaneously injected in the right ventral portion of 6-week old nude mice (Charles River Laboratories Japan, Inc.). Each mouse was observed daily, and notes were made appropriately in cases where abnormal conditions were found. Calipers were used to measure the tumor size over time, and the tumor size was calculated based on the calculation formula: major axis×(minor axis squared)÷2. At the point when the tumor size was 100 to 200 mm^3, the mice were separated into groups such that the average values of the tumor sizes and the mouse body weights were uniform among the test groups (five mice per test group), and the drug was administered into the caudal vein (0.2 mL/20 g; 3 times in 7-day intervals).

[3] = tested on: WiDr, human colon cancer cell line; assay: Antitumor activity of eribulin mesylate in WiDr cancer-bearing nude mice (Embodiment 12, FIG. 5); type: in vivo; conditions: 2 mg/kg; caudal vein, 2 times in 7-day intervals; five mice per group
Procedure: WiDr, which is a human colon cancer cell line, was cultured and grown in a 10% bovine fetal serum-containing RPMI1640 culture. The cells were separated from the flask using 0.05% Trypsin-EDTA solution and collected. After washing with PBS, the cells were suspended in Hank's Balanced Salt Solution (manufactured by Gibco BRL Co. Ltd.) so as to be 5×10^7 cells/mL and kept on ice. 0.1 mL of cell suspension liquid were subcutaneously injected in the right ventral portion of 7-week old nude mice (Charles River Laboratories Japan, Inc.). Each mouse was observed daily, and notes were made appropriately in cases where abnormal conditions were found. Calipers were used to measure the tumor size over time, and the tumor size was calculated based on the calculation formula: major axis×(minor axis squared)÷2. At the point when the tumor size was 100 to 200 mm^3, the mice were separated into groups such that the average values of the tumor sizes and the mouse body weights were uniform among the test groups (five mice per test group), and the drug was administered into the caudal vein (0.2 mL/20 g; 2 times in 7-day intervals).

[4] = Eribulin mesylate blood plasma and tumor tissue PK in LOX cancer-bearing mice (Embodiment 11); type: in vivo; conditions: female, NU/NU nude, mouse, iv
Procedure: A blood sample was taken and tumor tissue extraction was carried out with a cardiac puncture at fixed periods after administration (15 minutes, 30 minutes, 1, 2, 4, 8, 12, 24, 36, and 48 hours) (n=3). The blood was sampled in a test tube containing heparin, and within 30 minutes of the sampling, the blood was separated by centrifuging at 1,500×g for 10 minutes at 4° C. to obtain the blood plasma. All of the tumor tissue was extracted, washed with PBS, and wiped with water-absorbent paper, and then the tissue weight was immediately weighed. The tissue was placed in a test tube and cooled in ice water, and then stored at −80° C. until analysis was carried out.
The PK parameters were calculated using non-compartment model analysis software (WinNonlin version 5.0.1).

[5] = Maximum tolerance dose of eribulin mesylate free bodies; type: in vivo; conditions: free body of eribulin mesylate, caudal vein, nude mice
[6] = tested on: ACHN, human renal cancer cell line; assay: Antitumor activity of eribulin mesylate in ACHN cancer-bearing nude mice (Embodiment 15, FIG. 8); type: in vivo; conditions: free body 2 mg/kg, 3 mg/kg and 4 mg/kg, 3 times in 7-day intervals, 45 days after the start of administration
Procedure: ACHN (obtained from the American Type Culture Collection), which is a human renal cancer cell line, was cultured and grown in a 10% bovine fetal serum-containing MEM culture. The cells were separated from the flask using 0.05% Trypsin-EDTA solution and collected. After washing with PBS, the cells were suspended in PBS so as to be 5×10^7 cells/mL and then kept on ice. 0.1 mL of cell suspension liquid was subcutaneously injected in the right ventral portion of 6-week old nude mice (Charles River Laboratories Japan, Inc.). Each mouse was observed daily, and notes were made appropriately in cases where abnormal conditions were found. Calipers were used to measure the tumor size over time, and the tumor size was calculated based on the calculation formula: major axis×(minor axis squared)÷2. At the point when the tumor size was 150 to 200 mm^3, the mice were separated into groups such that the average values of the tumor sizes and the mouse body weights were uniform among the test groups (five mice per test group), and the drug was administered into the caudal vein (0.2 mL/20 g; 3 times in 7-day intervals).

[7] = tested on: WiDr, human colon cancer cell line; assay: Therapeutic effect of E7107 on tumor growth in WiDr cancer-bearing nude mice (Embodiment 10); type: in vivo; conditions: 2.5 mg/kg single dose into caudal vein; 5 days after administration
Procedure: (§1) WiDr (obtained from Dainippon Sumitomo Pharma Co., Ltd.), which is a human colon cancer cell line, was cultured and grown in a 10% bovine fetal serum-containing RPMI1640 culture. The cells were separated from the flask using 0.05% Trypsin-EDTA solution and collected. After washing with PBS, the cells were suspended in Hank's Balanced Salt Solution (manufactured by GIBCO) so as to be 5×10^7 cells/mL and kept on ice. 100 μL of cell suspension liquid was subcutaneously injected in the right ventral portion of 6- to 8-week old nude mice (CLEA Japan, Inc.). Each mouse was observed daily, and notes were made appropriately in cases where abnormal conditions were found. Calipers were used to measure the tumor size over time, and the tumor size was calculated based on the calculation formula: major axis×(minor axis squared)÷2. Moreover, the mouse body weight was also measured over time. At the point when the tumor size was 100 to 200 mm^3, the mice were separated into groups such that the average values of the tumor sizes and the mouse body weights were uniform among the test groups (five mice per test group). […]
(§2) The tumor-growth suppression effect and the body weight loss 5 days after administration were statistically analyzed by a parametric method. […]

[8] = Body weight of WiDr cancer-bearing nude mice (Embodiment 10); type: in vivo; conditions: average body weight; 2.5 mg/kg single dose; 5 days after administration
Procedure: as §1, §2

[9] = Measurement of the entrapment ratio (ultracentrifugation, HPLC of active compound in the filtrate); type: physicochemical; conditions: E7107, internal phase 250 mM HP-β-cyclodextrin/100 mM citric acid (pH=5.5)
Procedure: The entrapment ratio was determined as described below.
The entrapment ratio was calculated using the formula below.

[10] = complex with HP-β-cyclodextrin, Non-patent Literature 6, cited from earlier work
[11] = blood plasma, 1.0 mg/kg into caudal vein, LOX cancer-bearing mice
[12] = tumor tissue, 1.0 mg/kg into caudal vein, LOX cancer-bearing mice

## C=C1C[C@@H]2CC[C@@]34C[C@H]5O[C@H]6[C@@H](O3)[C@H]3O[C@H](CC[C@@H]3O[C@H]6[C@H]5O4)CC(=O)C[C@@H]3[C@@H](OC)[C@@H](C[C@H](O)CN)O[C@H]3C[C@H]3O[C@@H](CC[C@@H]1O2)C[C@@H](C)C3=C [eribulin mesylate]
[1]
  Tumor-reducing effect: tumor-reducing effect was not obtained
[2]
  Tumor-reducing effect: tumor-reducing effect was not obtained
[3]
  Complete disappearance of the tumor / mice completely healed: 2 out of 5
[4]; [11]
  MRT: 3.3 h
  clearance: 40.3 mL/min/kg
  half-life: 3.7 h
[4]; blood plasma, 1.0 mg/kg into caudal vein, LOX cancer-bearing mice, read-out: Vss
  Vd: 8.03 L/kg
[4]; [12]
  AUC(0-inf): 6290 ng·h/mL
  AUC(0-t): 4650 ng·h/mL
  Cmax: 323 ng/g
  MRT: 27.7 h
  Tmax: 0.25 h
  half-life: 17.8 h
[4]; plasma, 1 mg/kg
  AUC(0-inf): 365 ng·h/mL
  AUC(0-t): 363 ng·h/mL
[5]
  Maximum tolerance dose: 4 mg/kg
[5]; listed as free bodies
  Maximum tolerance dose: 4.0 mg/kg
[6]
  Tumor volume versus the untreated group: no significant difference

## CCC(O)C(C)C1OC1CC(C)(O)/C=C/C=C(\C)C1OC(=O)CC(O)CCC(C)(O)C(OC(=O)N2CCN(C3CCCCCC3)CC2)/C=C/C1C (stereo not drawn) [E7107, (8E,12E,14E)-7-{(4-cycloheptylpiperazin-1-yl)carbonyl}oxy-3,6,16,21-tetrahydroxy-6,10,12,16,20-pentamethyl-18,19-epoxytricosa-8,12,14-trien-11-olide]
[7]
  Tumor (mm^3): 204.34 mm^3
[8]
  Body weight: 20.32 g
[9]; 5° C., 5 minutes
  Entrapment ratio (%): 0%
[9]; 5° C., 1 hour
  Entrapment ratio (%): 0%
[9]; 5° C., 6 hours
  Entrapment ratio (%): 0%
[9]; 20° C., 1 minute
  Entrapment ratio (%): 0%
[9]; 20° C., 5 minutes
  Entrapment ratio (%): 0%
[9]; 20° C., 1 hour
  Entrapment ratio (%): 13.1%
[9]; 20° C., 6 hours
  Entrapment ratio (%): 49.6%
[9]; 40° C., 1 minute
  Entrapment ratio (%): 4.1%
[9]; 40° C., 5 minutes
  Entrapment ratio (%): 87.5%
[9]; 50° C., 1 minute
  Entrapment ratio (%): 56.8%
[9]; 60° C., 1 minute
  Entrapment ratio (%): 99.2%

## CC(C(=O)O)c1cccc(C(=O)c2ccccc2)c1 (stereo not drawn) [ketoprofen]
[10]; MLVs (multilamellar vesicles)
  Entrapment ratio: approximately 75%
[10]; SUVs (small unilamellar vesicles)
  Entrapment ratio: approximately 55%
